Measured values published in patent US9913832B2, “Accelerating thrombus resolution through augmentation of p53 activity” (priority 2009, dated 2018).
Entries after “also recorded” stand apart in the source; their conditions may differ.

Experiments:
normal (wildtype) mice = test: mouse model of thrombus resolution (vena caval ligation), normal mice; assay type: in vivo; conditions: 25 mg/kg body weight by daily injection, versus saline, FIG. 8
Description: In an effort to develop pharmacological and molecular therapy to accelerate thrombus resolution, the function of the p53 gene was studied in an in vivo model of thrombus resolution. In this mouse model (vena caval ligation) the thrombus shrinks between day 4 and day 12 by about 50% as defined by change in thrombus weight. It was noted that the expression of the p53 protein is increased in thrombus resolution.
In order to determine whether augmentation of normal p53 function could accelerate thombus resolution wildtype mice were treated with the p53 activator quinacrine (25 mg/kg body weight, by daily injection). Quinacrine is known to increase p53 levels by stabilizing the p53 protein and preventing its normal degradation inside cells.
(§1) The well-established rodent model of thrombus resolution was used to define a role for the p53 gene in this process. In this model, a mouse is anesthetized, the abdomen is opened with standard sterile surgical technique and the vena cava (the largest abdominal vein) is ligated in the abdomen with a suture immediately below the level of the renal veins.
The weight of the thrombus decreases with time, and this change in weight reflects the thrombus resolution process in this model. […]

[1] = test system: mice lacking the p53 gene; test: mouse model of thrombus resolution (vena caval ligation), mice lacking the p53 gene; assay type: in vivo; conditions: quinacrine versus control, FIG. 9, last two columns
Description: To determine whether the beneficial effect on thrombus resolution of quinacrine was due to activation of the p53 gene and not some other unknown effect of quinacrine on thrombus resolution the quinacrine experiment was repeated in mice that lack p53 (FIG. 2).
as §1
To determine if pharmacologic activation of the p53 gene beyond its usual activation by thrombus resolution might accelerate thrombus resolution, normal mice were treated with the p53 activator quinacrine (25 mg/kg body weight, by daily injection) or saline as a control, and then subjected to vena caval ligation as described above. […] To determine if this effect of quinacrine was actually due to p53 activation, this experiment was repeated in animals lacking the p53 gene.

experimental thrombi = conditions: literature studies of exogenous therapy on formed or established thrombus; cited from earlier work

| Compound | thrombus resolution as determined by thrombus weight on day 12 (normal (wildtype) mice) | thrombus resolution / thrombus size at day 12 [1] | thrombus resolution in experimental animal models (experimental thrombi) |
| --- | --- | --- | --- |
| CCN(CC)CCCC(C)Nc1c2ccc(Cl)cc2nc2ccc(OC)cc12 (stereo not shown) [quinacrine] | improved thrombus resolution; also recorded: decreased thrombus weight | absent; also recorded: no difference in thrombus size | – |
| MCP-1: cytokine macrophage chemotactic factor | – | – | does improve experimental thrombus resolution |
| low molecular weight heparin | – | – | no improvement in the resolution of an established thrombus |
